The text below walks through data of US6692757B1, “Multi-component, safe biocidal complex” (Board of Supervisors of Louisiana State University and …, priority 1999, dated 2004).

For assay [1], the system named is bacteria endogenous to the city water system (biofilm on glass beads). Put plainly: Biofilm-contaminated glass beads column: organisms released in effluent. Details: key: −: No significant reduction in number of organisms.; +/−: A small or transient reduction in number of organisms.; +: A significant reduction in number of organisms.; +++: A reduction to below 10 organisms per ml effluent. The note with it: hydrogen peroxide 3% v/v, NaHSO4 0.06% w/v, thymol >0.1% w/v, iron chip, treated four days, 12 h static. The format is cell-based. On the procedure: The beads were first contaminated with bacteria endogenous to the city water system for five days.
0.06% w/v; and thymol, >0.1% w/v. Additionally, an iron chip was added to the Biocidal Complex.
Glass beads with an established biofilm were treated, and samples collected and analyzed, as described above.

For assay [2], the system named is Escherichia coli on chicken skin. Put plainly: MIC on inoculated chicken skin, E. coli. The note with it: single agent; chicken skin immersed 10 min at 20° C.; concentration reducing final count below 17.5 cfu/cm^2. Format: cell-based, Escherichia coli B. On the procedure: To test the effectiveness of Biocidal Complex on other surfaces, a 5.7 cm^2 piece of chicken leg skin was placed in a holder made from a bottomless 50 ml centrifuge tube with a cap to support the skin test strip. Each skin sample was initially immersed in water. […] The bacteria were counted as described below. This value served as the control. The skin was then exposed to germicidal ultraviolet light for 5 min to sanitize the skin prior to inoculation. The sanitized skin was inoculated with 1 ml of a cell suspension containing 10^8 cfu/ml of either Salmonella typhimurium or Escherichia coli B and incubated for 30 min at 37° C. and 32° C., respectively. The inoculated skin samples were immersed in Biocidal Complex or in other combinations of ingredients at 20° C. for 10 min. […] The cotton swabs from both the control and treated skin were vortex-mixed for 1 min in a 0.1% peptone solution (pH 7.2). Then 0.5 ml of peptone solution was plated on MacConkey agar (Difco Laboratory, Detroit, Michigan). The plates were incubated for 24 hr at either 37° C. or 32° C. before counting the colonies. Microbial counts were expressed as cfu/cm^2, based on a total skin sample area of 5.7 cm^2. An initial level of contamination before treatment with Biocidal Complex (or water) was assessed for each sample. […] Initial contamination level of the inoculated skin after 30 min incubation time and immediately prior to treatment was 140,000 cfu/cm^2.

Assay [3] deals with Salmonella typhimurium on chicken skin. Put plainly: MIC on inoculated chicken skin, S. typhimurium. Format: cell-based. The note with it: single agent; chicken skin immersed 10 min at 20° C.; concentration reducing final count below 17.5 cfu/cm^2. On the procedure: To test the effectiveness of Biocidal Complex on other surfaces, a 5.7 cm^2 piece of chicken leg skin was placed in a holder made from a bottomless 50 ml centrifuge tube with a cap to support the skin test strip. Each skin sample was initially immersed in water. […] The bacteria were counted as described below. This value served as the control. The skin was then exposed to germicidal ultraviolet light for 5 min to sanitize the skin prior to inoculation. The sanitized skin was inoculated with 1 ml of a cell suspension containing 10^8 cfu/ml of either Salmonella typhimurium or Escherichia coli B and incubated for 30 min at 37° C. and 32° C., respectively. The inoculated skin samples were immersed in Biocidal Complex or in other combinations of ingredients at 20° C. for 10 min. […] The cotton swabs from both the control and treated skin were vortex-mixed for 1 min in a 0.1% peptone solution (pH 7.2). Then 0.5 ml of peptone solution was plated on MacConkey agar (Difco Laboratory, Detroit, Michigan). The plates were incubated for 24 hr at either 37° C. or 32° C. before counting the colonies. Microbial counts were expressed as cfu/cm^2, based on a total skin sample area of 5.7 cm^2. An initial level of contamination before treatment with Biocidal Complex (or water) was assessed for each sample. […] Contamination level of the inoculated skin after 30 min incubation time and immediately before treatment was 3,500,000 cfu/cm^2. The water-washed control skin ha 1,750 cfu/cm^2.

For assay [4], the system named is Escherichia coli in broth culture. Put plainly: MIC in broth culture, E. coli. Format: cell-based, Escherichia coli B. The note with it: single agent; nutrient broth, 24 hours at 32° C.; no detectable growth. On the procedure: (§1) Nutrient broth was mixed with the complete Biocidal Complex or with combinations of ingredients, and then serially diluted two-fold in stages. Various combinations of biocidal ingredients and broth were inoculated with 0.1 ml of either Salmonella typhimurium or Escherichia coli B to give a microbial count of about 10^7 cfu/ml. Inoculated broth was then incubated for 24 hours at 37° C. for S. typhimurium, or at 32° C. for E. coli.

In assay [5] the test system is Salmonella typhimurium in broth culture. Put plainly: MIC in broth culture, S. typhimurium. Format: cell-based. The note with it: single agent; nutrient broth, 24 hours at 37° C.; no detectable growth. On the procedure:
as §1

Bounds are passed on as bounds.

Consider `Cc1ccc(C(C)C)c(O)c1` [Thymol, thymol], for which, in assay [1], the “Effect: qualitative changes in number of organisms released from established biofilms” value is on record as “+/−”. Moreover, the “MIC (%)” value is listed as over 0.1% in assay [2], over 0.1% in assay [3], 0.02% in assay [4] and 0.04% in assay [5].

Regarding `OO` [H2O2, hydrogen peroxide], the “Effect: qualitative changes in number of organisms released from established biofilms” value in assay [1] was “−”. For the same compound, the “MIC (%)” value in assay [2] is on record as 4.0%; in assay [3], 7.0%; in assay [4], 0.006%; in assay [5], 0.012%.

As to `OCl` [Sodium Hypochlorite, sodium hypochlorite, reference compound], the “MIC (%)” value in assay [2] is 1.0%; in assay [3], 1.0%; in assay [4] it was 0.013%; in assay [5] it was 0.025%.
